US12714696B2, “Low dose fluralaner compositions for protection against parasitic invertebrate pest” (VIRBAC, priority 2019, dated 2026)
Where two headings read alike, the source gives them in different places.

Assays:
Rhipicephalus sanguineus = experiment: Efficacy against ticks on dogs, oral 250/35/600 μg/kg study; type: in vivo; details: for Percentage efficacy using geometric mean, live ticks / live ticks, geometric mean, Group 2: oral 250/35/600 μg/kg regimen, dogs
Description: The second objective is to investigate the pharmacodynamics between the fluralaner plasmatic dose and the effectiveness against ticks. • IVP: Investigational Veterinary Product, is pure Fluralaner+DMSO (250 μg/kg on Days 0 to 3 (0.25 mL/kg), then 35 μg/kg on Days 4 to 9 (0.35 mL/kg), then 600 μg/kg on Day 11) • Control product is DMSO (0.25 mL/kg on Days 0 to 3, then 0.35 mL/kg on Days 4 to 9)
Dogs were infested with approximately 50 (±4) viable, adult, unfed R. sanguineus ticks on Days 1, 3, 5, 8, 10, 12, 16, 22, 26 and 30 to assess efficacy. Ticks will be removed and counted on Days 3, 5, 7 (48 hours±2 hours after infestation) and 9, 11, 13, 17, […], 27, 32 (24 hours±2 hours after infestation). Dogs were also infested with approximately 100 (±8) viable, adult, C. felis fleas on Day −6 (±1 day) for randomisation purposes and on Day 2 to assess efficacy. Fleas will be removed and counted on Days −5 (+1 day) and 3 (24 hours±2 hours after infestation).
The efficacy against ticks and fleas were calculated for the study groups at each assessment day according to the formulas given below.
Efficacy calculations based on geometric mean values were, however, also reported on. Such calculations were based on the geometric mean values of the tick or flea (count+1) data. One (1) was subsequently subtracted from the result to obtain a meaningful value for the geometric mean of each group.
Efficacy was calculated as follows: Efficacy (%)=100×(Mc−Mt)/Mc, where: • Mc=Mean number of live ticks (categories 1 to 2) or live fleas on dogs in the negative control group (group 1) at a specific time point. • Mt=Mean number of live ticks (categories 1 to 2) or live fleas on dogs in the IVP group (group 2) • at a specific time point.

[1] = Pharmacokinetic profile of Bravecto spot-on after single topical administration on dogs; details: dog, in vivo, topical or ocular, 6250 ug/kg, Bravecto spot-on single topical 6250 μg/kg
Description: The objective of the study is to determine the pharmacokinetic profile of the Bravecto spot-on containing fluralaner after a single topical administration on dogs at a dose rate of 6250 μg/kg after feeding. • IVP: Investigational Veterinary Product, is Bravecto spot-on containing fluralaner at a dose rate of 6250 μg/kg (22.3112 μL/kg) on Day 0
Ten dogs were enrolled in the study of which six were included meeting the inclusion criteria. In addition, veterinary examinations (Day −14 and Day −2±one day), general health observations (all days) and weighing of all dogs (Day −2±one day) were performed.
On Day 0, all dogs will receive the IVP at a dose rate of 6250 μg/kg. The quantity of IVP to be administered will be calculated according to the dog's individual body weight. Dogs will be observed hourly (±15 minutes) for four hours after administration on Day 0.
Blood specimens will be collected from all dogs on Days −14 and −7 for clinical chemistry and hematology for inclusion and for pharmacokinetic analysis prior to IVP treatment on Day 0 and on Days 1 (+24 hours), 3 (+72 hours), 5 (+120 hours), 7 (+168 hours), 10 (+240 hours), 14 (+336 hours), 21 (+504 hours), 28 (+672 hours), 35 (+840 hours), 42 (+1008 hours), 49 (+1176 hours), 56 (+1344 hours) and 60 (+1440 hours).
The PK parameters of fluralaner were calculated using a non-compartmental approach.
The following rules were applied for the calculation of the PK parameters: • All the plasma concentrations, validated by the bioanalytical laboratory, were used for the PK analysis. • The actual blood sampling times were used throughout. • Concentrations below the Limit of Quantification (LOQ) value were considered as zero from time zero (pre-dose) up to the time at which the first quantifiable concentration above the LOQ value was observed. Concentrations below the LOQ value between two quantifiable concentrations were considered as missing. Trailing concentrations below the LOQ value were not used in calculations.
Cmax the observed maximum concentration in plasma measured after dosing.
tmax the time at which Cmax was apparent.
λz the terminal rate constant (λz) was estimated by log-linear regression analysis on data points visually assessed, to be on the terminal log-linear phase. For the slope of the terminal elimination phase to be accepted as reliable, the following criteria were used: • the terminal data points were apparently randomly distributed about a single straight line (on visual inspection), • a minimum of three data points, including the last measured data point and excluding Cmax, were available for the regression.
t1/2 the terminal plasma half-life (t1/2) was calculated according to the following equation: […]
AUC0-t the area under the concentration-time curve from time zero (pre-dose) to the time of last quantifiable concentration (t) was calculated using a linear trapezoidal method.
[AUC0-∞=AUC0-t+(Ct/λz)], where Ct was the observed concentration of drug for the last sample on the PK profile in which the drug was detected, and λz was as defined above.
The extrapolated area under the curve, expressed as a percentage of the total area, AUCinf, was also calculated as: Area Extra (%)=(AUC0-∞−AUC0-t)/AUC0-∞*100%.

## Cc1cc(C2=NOC(c3cc(Cl)cc(Cl)c3)(C(F)(F)F)C2)ccc1C(=O)NCC(=O)NCC(F)(F)F (stereo not shown) [fluralaner, Fluralaner]
Rhipicephalus sanguineus; Day 3
  Percentage efficacy using geometric mean, live ticks: 100
  live ticks, geometric mean, Group 2: 0.0
Rhipicephalus sanguineus; Day 5
  Percentage efficacy using geometric mean, live ticks: 100
  live ticks, geometric mean, Group 2: 0.0
Rhipicephalus sanguineus; Day 7
  Percentage efficacy using geometric mean, live ticks: 100
  live ticks, geometric mean, Group 2: 0.0
Rhipicephalus sanguineus; Day 9
  Percentage efficacy using geometric mean, live ticks: 47.3
  live ticks, geometric mean, Group 2: 11.8
Rhipicephalus sanguineus; Day 11
  Percentage efficacy using geometric mean, live ticks: 77.8
  live ticks, geometric mean, Group 2: 7.8
Rhipicephalus sanguineus; Day 13
  Percentage efficacy using geometric mean, live ticks: 85.0
  live ticks, geometric mean, Group 2: 4.5
Rhipicephalus sanguineus; Day 17
  Percentage efficacy using geometric mean, live ticks: 80.8
  live ticks, geometric mean, Group 2: 5.1
Rhipicephalus sanguineus; Day 23
  Percentage efficacy using geometric mean, live ticks: 46.1
Rhipicephalus sanguineus; Day 27
  Percentage efficacy using geometric mean, live ticks: 78.9
  live ticks, geometric mean, Group 2: 6.8
Rhipicephalus sanguineus; Day 31
  Percentage efficacy using geometric mean, live ticks: 56.1
Rhipicephalus sanguineus; infestation at D1, first measurement at D3
  efficacy against ticks from the first day after treatment: present
Rhipicephalus sanguineus; period during the first four doses of 250 μg/kg per day and the following three doses of 35 μg/kg per day
  efficacy against ticks: 100%
[1]; dogs without 86D 6FA, n=5, read-out: fluralaner AUC0-t, Mean
  AUC(0-t): 181 µg·h/mL
[1]; dogs without 86D 6FA, n=5, read-out: fluralaner Cmax, Mean
  Cmax: 238 ng/mL
[1]; dogs without 86D 6FA, n=5, read-out: fluralaner t½ (terminal half-life), Mean (converted)
  half-life: 16.2 days
[1]; dogs, read-out: maximum concentration (Cmax), range
  Cmax: 161 to 353 ng/mL
[1]; dogs, read-out: terminal half-life, range
  half-life: 14.2 to 20.4 days
